Assay results taken from patent US6890954B1, “Uses of 2-bromopalmitate in the treatment of autoimmune disease” (priority 1999, dated 2005).

How the values were obtained:
Assay type in all cases: cell-based
Fyn(16)-eGFP = test: Localization of Fyn(16)-eGFP in COS-1 cells (fluorescence microscopy, P100/S100 fractionation)
Method: COS-1 cells were transfected with a Fyn(16)-eGFP construct (12) and seeded onto 25-mm glass coverslips 2 days prior to the experiment. Cells were treated overnight with or without 2 bromopalmitate as described above. Plates were washed with PBS and coverslips were mounted onto glass slides in PBS and observed with a 40× and 100×oil immersion lens on a Zeiss Axiophot 2 microscope and photographed with Kodak TMAX 400.
To investigate the effect of 2-bromopalmitate on the intracellular localization of Fyn more precisely, COS-1 cells expressing a Fyn(16)-eGFP construct were examined by immunofluorescence. This construct contains the first 16 amino acids of Fyn fused in frame to eGFP; the chimera is targeted to the plasma membrane and detergent resistant microdomains (12). Cells were cultured with no treatment, with 2-bromopalmitate or with 2-hydroxymyristate, a known myristoylation inhibitor (40,41), as described above, and were examined live by fluorescence microscopy.
Analysis of the subcellular localization of Fyn(16)-eGFP in the presence of 2-bromopalmitate and 2-hydroxymyristate was performed as described above for steady-state Fyn. As depicted in FIG. 2B, in the absence of treatment, 80% of Fyn(16)-eGFP Fyn was membrane bound, whereas in cells treated with 2-bromopalmitate and 2-hydroxymyristate, 65% and 78% of Fyn(16)-eGFP were cytosolic, respectively.

Fyn [1] = target: T1, Fyn (Homo sapiens, UniProt P06241); test: Fyn fatty acylation (IC13/IC16 incorporation) in transfected COS-1 cells; conditions: for effect of palmitate analog on Fyn fatty acylation: COS-1 cells, data not shown
T1 construct: expressed in transfected cells; host or cells: COS-1
Method: The syntheses of 13-[^125I]-iodotridecanoic acid (IC13)or 16-[^125I]-iodohexanoic acid (IC16) were carried out as described previously (39). Cell labeling was carried out as described (12,13) with modifications. Briefly, each 60 mm plate of Fyn transfected COS-1 cells was incubated O/N in DMEM containing 2.5% FBS, 0.5% defatted BSA (Sigma) with or without 100 μM 2-bromopalmitate or 50 μM polyunsaturated fatty acid. Prior to labeling, the cells were incubated for 1 hr with 1 ml of DMEM containing 2% dialyzed FBS, then labeled for 4 hours with 25-50 μCi IC13 or IC16 in DMEM containing 2% dialyzed FBS, 0.5% defatted BSA with or without 2-bromopalmitate or polyunsaturated fatty acid. Labeled cells were washed three times with cold STE (100 mM NaCl, 10 mM Tris pH 7.4, 1 mM EDTA) and lysed in 0.6 ml of cold RIPA buffer containing protease inhibitors (10 μg/ml each of benzamidine, AEBSF, TPCK and TLCK, 1.5 μg/ml each of Leupeptin, Pepstatin A and Aprotinin). Lysates were clarified at 100,000×g for 15 min at 4° C. in a Beckman TL-100 ultracentrifuge. Lysates were immunoprecipitated with rabbit anti-Fyn antibody and protein A-agarose. Immunoprecipitates were washed three times with cold RIPA buffer and suspended in 1× sample buffer containing 100 mM dithiothreitol and subjected to SDS-PAGE. Gels were dried between cellophane and analyzed by phosphorimaging after 12-36 hours exposure. Experiments in Jurkat T cells were carried out according to the above protocol using 2×10^7 cells per experiment, and reducing the incubation time with 2-bromopalmitate to 3-4 hours.
A number of palmitic acid analogs were screened for their ability to inhibit Fyn palmitoylation. COS-1 cells were transfected with cDNA encoding Fyn. Three days after transfection, the cells were labeled with either [^35S]-methionine, 13-[^125I]-iodotridecanoic acid (IC13), an iodinated myristate analog, or 16-[^125I]-iodohexanoic acid (IC16), an iodinated palmitic acid analog (39), in the presence or absence of nonradioactive palmitate analogs. Cells were lysed, immunoprecipitated with anti-Fyn antibody, and analyzed by SDS-PAGE and phosphorimaging. […] When normalized for total protein levels, 70% of Fyn myristoylation and over 90% of Fyn palmitoylation was inhibited in the presence of 2-bromopalmitate. Treatment of cells with other analogs, including 2-hydroxypalmitate, palmitoleic acid and 16-hydroxypalmitate had no effect (data not shown).
To test this hypothesis, Fyn transfected COS-1 cells were incubated O/N with or without 50 μM arachidonic acid (20:4) or eicosapentaenoic acid (20:5), then labeled with IC13 or IC16. Total protein levels were monitored by immunoblotting aliquots of each sample with anti-Fyn antibody (FIG. 8A, lower panel).

Fyn [2] = test: DRM localization of Fyn in PUFA-treated COS-1 cells (sucrose gradient); conditions: COS-1, 50 μM PUFA; untreated 30%
Method: For isolation of detergent resistant microdomains in PUFA-treated COS-1 cells, a confluent 100 mm plate of COS-1 cells transiently transfected with Fyn cDNA was washed with S-IE and subjected to the same procedure described above. Fractions were analyzed for the presence of Fyn by immunoblotting.
Whether 20:4 and 20:5 inhibited localization of Fyn to detergent resistant microdomains in COS-1 cells was examined next. Cells were treated with or without polyunsaturated fatty acids as described above and layered on the bottom of a sucrose gradient as described above. Fractions were collected and analyzed by immunoblotting with anti-Fyn antibody.

T1 sequence (P06241 whole entry, species assumed): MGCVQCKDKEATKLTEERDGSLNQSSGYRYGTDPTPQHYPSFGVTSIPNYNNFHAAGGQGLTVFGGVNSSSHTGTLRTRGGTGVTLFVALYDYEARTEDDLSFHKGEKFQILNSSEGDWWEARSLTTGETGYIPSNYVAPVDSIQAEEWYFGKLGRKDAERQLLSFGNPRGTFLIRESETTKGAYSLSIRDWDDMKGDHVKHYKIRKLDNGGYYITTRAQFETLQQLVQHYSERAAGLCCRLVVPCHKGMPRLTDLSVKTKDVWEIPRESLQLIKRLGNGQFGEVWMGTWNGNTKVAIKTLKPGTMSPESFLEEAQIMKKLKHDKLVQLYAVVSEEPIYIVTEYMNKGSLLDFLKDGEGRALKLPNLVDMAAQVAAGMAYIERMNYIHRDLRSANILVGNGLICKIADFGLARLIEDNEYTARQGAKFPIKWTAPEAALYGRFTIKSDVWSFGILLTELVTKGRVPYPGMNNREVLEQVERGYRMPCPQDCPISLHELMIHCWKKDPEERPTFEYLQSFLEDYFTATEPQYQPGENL

CCCCCCCCCCCCC(O)C(=O)O (stereo not shown) [2-hydroxymyristate, reference compound]
Fyn(16)-eGFP cytosolic (Fyn(16)-eGFP; COS-1, 100 μM overnight, P100/S100, untreated 80% membrane bound): 78%
Fyn(16)-eGFP distribution by fluorescence microscopy (Fyn(16)-eGFP; COS-1 live cells, 100 μM overnight): reduced plasma membrane staining

CCCCCC/C=C\CCCCCCCC(=O)O [palmitoleic acid]
effect of palmitate analog on Fyn fatty acylation (Fyn [1]): no effect

CCCCC/C=C\C/C=C\C/C=C\C/C=C\CCCC(=O)O [arachidonic acid]
effect on Fyn myristoylation (IC13 incorporation) (Fyn [1]; COS-1, 50 μM PUFA overnight): almost no effect
inhibition of incorporation of IC16 into Fyn (palmitoylation) (Fyn [1]; COS-1, 50 μM PUFA overnight): 55%
Fyn found in detergent resistant microdomains (Fyn [2]): 16%

O=C(O)CCCCCCCCCCCCCCCO [16-hydroxypalmitate]
effect of palmitate analog on Fyn fatty acylation (Fyn [1]): no effect

CC/C=C\C/C=C\C/C=C\C/C=C\C/C=C\CCCC(=O)O [eicosapentaenoic acid]
inhibition of incorporation of IC16 into Fyn (palmitoylation) (Fyn [1]; COS-1, 50 μM PUFA overnight): 65%
Fyn found in detergent resistant microdomains (Fyn [2]): 5.3%

CCCCCCCCCCCCCCC(O)C(=O)O (stereo not shown) [2-hydroxypalmitate]
effect of palmitate analog on Fyn fatty acylation (Fyn [1]): no effect
